Series [1] in a line: Octanol/buffer partition coefficient (lipid solubility). The series is classed as physicochemical. To be noted: pH 7.5. As for the experimental part:
We measured the lipid solubility of the IRAs, using octanol and PB. Briefly, 1 × 10^5 counts per minute (cpm) of each ^125I/^14C-IRA were added to triplicate tubes containing equal volumes PB and octanol (Sigma-Aldrich). This solution was vigorously mixed for 1 min and centrifuged at 5500 ×g for 10 min to separate the two phases. Aliquots of 100 μl were taken in duplicate from each phase, and total radioactivity was counted in a gamma counter (Wizard2, Perkin-Elmer) or beta counter (TriCarb 3110TR, Perkin-Elmer). The ratio of the cpm in the octanol phase to the cpm in the buffer phase equates to the mean partition coefficient (Pcoeff) and indicates lipophilicity. The log value for the coefficient can be either greater than unity, indicative of a lipophilic compound, or less than unity, indicative of a hydrophilic compound.

Series [2] can be described thus: In vivo stability of 125I/14C-IRAs in brain (acid precipitation). Also on record: species or system male CD-1 mice. To be noted: mouse, iv. How it is done: We measured the stability of the radiolabeled IRAs in brain and blood. Following anesthetization, arterial blood and whole brain were taken at two time points (10 or 60 min) after iv injection of 3 × 10^5 cpm-1×10^6 cpm of ^125I/^14C-IRA in 0.2 ml of BSA/LR. The blood samples were allowed to clot, centrifuged at 3200 ×g for 10 min, and 50 μl of the separated serum was added to 250 μl of BSA-LR. Samples were combined with equal volume 30% TCA (300 μl), mixed, and then centrifuged for 10 min at 5400 ×g. Brains were homogenized in 800 μl of BSA-LR with a bead beater for 30 sec at 4800 rpm twice. Following centrifugation at 5400 ×g for 15 min, a portion of the resulting supernatant was added to an equal volume of 30% TCA, mixed, and then centrifuged at 5400 ×g for 10 min. The radioactivity in the resulting supernatant and pellet (Sup and Pel fractions) for serum and brain was calculated separately, and the percent of radioactivity in the precipitate was calculated using the following equation:(1) %AcidPrecip=100×Pel/Sup+Pel
To correct for degradation that might have occurred during the processing, ^125I/^14C-IRA was added to non-radioactive arterial whole blood or to whole brain and processed as above. The biological samples were corrected for degradation during processing by dividing their values by those for processing control (Pcon) values and multiplying by 100. This can sometimes result in a value greater than 100%.
Immediately after counting the radioactivity, the blood and brains from the 10 min and 6 h time points were processed as described in Section 2.5 for in vivo stability. For further comparison, data from the 1 h time point were taken from the original pharmacokinetic uptake study. The ^125I-IRA brain % acid precipitation (%AP) was divided by the ^125I-IRA serum %AP at each time point to calculate the %AP B/S ratio. This value was multiplied by the B/S ratio for each ^125I-IRA to correct for degradation over the 10 min, 1 h, or 6 h time periods. Corrected AP B/S ratios were then corrected for vascular space by subtracting the ^99mTc-Alb B/S ratio within each mouse for the 10 min and 6 h time points (AP corrected delta B/S ratio). For the 1 h time point, the average ^99mTc-Alb B/S ratio (10.03 μl/g) at 10 min across all ^125I-IRAs was used for correction. The AP corrected delta B/S ratio for each ^125I-IRA was then multiplied by the %Inj/ml within each mouse to calculate the AP corrected delta %Inj/g.

Series [3] in a line: Brain influx and initial volume of distribution (multiple-time regression analysis). The following applies: mouse, in vivo, iv. On the set-up: species or system male CD-1 mice. How it is done: Following anesthetization, the jugular vein and right carotid artery were exposed. Mice were given a jugular vein injection of 0.2 ml BSA-LR containing 3 × 10^5 cpm-1×10^6 cpm of an ^125I/^14C-labeled IRA and 5 × 10^5 cpm of ^99mTc-Alb. Blood samples were collected from the carotid artery at various time points from 1 to 60 min after iv injection (see Figure 1). Mice were then decapitated, and their brains were removed and weighed. After clotting, the arterial blood was centrifuged at 3200 ×g for 10 min. Levels of radioactivity in serum (50 μl) and brain were measured in a gamma counter for ^125I and ^99mTc for 3 min. After ^99mTc decay, ^14C-DA5-CH samples were solubilized with Solvable (Sigma), transferred to scintillation vials containing Ecoscint (National Diagnostics) and ^14C was measured in a beta counter. Sample injection checks were taken throughout the course of the study to calculate the mean injected cpm/mouse. To determine the rate of ^125I/^14C-IRA clearance from the serum, the results were expressed as the percentage of an injected dose in each ml of serum (%Inj/ml), which was calculated by dividing the cpm in a ml of serum (cpm/ml serum) by the cpm injected into the mouse (cpm/Inj):
To calculate the blood-to-brain unidirectional influx constant (Ki), multiple-time regression analysis was used as first described by Patlak, Blasberg, and Fenstermacher.[67],[68] The brain/serum (B/S) ratios (μl/g) of the ^125I/^14C-IRA in each gram of brain were calculated from the data in Section 2.6 and plotted against their respective exposure times as previously applied by Rhea et al. 2018.[69] Exposure time differs from clock time in that exposure time corrects for clearance of the ^125I/^14C-IRA from blood and thus, better represents the amount of ^125I/^14C-IRA available for BBB transport at any given time. Delta B/S ratios were calculated by subtracting the vascular space as measured by the B/S ratio for ^99mTc-Alb from the B/S ratio for the respective ^125I/^14C-IRA. Thus, delta B/S ratios represent material that has been taken up by or has crossed the BBB. The slope of the linear portion of the relation between delta B/S ratios and exposure time defines Ki (μl/g-min) and is reported with its error term. This represents Model 1 for DA5-CH. The y-intercept of this linear portion of the relation defines Vi, (μl/g), the initial volume of distribution in brain at t = 0, which is the functional volume per unit brain mass of a soluble compound that exchanges rapidly and reversibly with plasma.[68] Vi consists of the vascular space (Vv) and any residual space after accounting for Vv and usually represents vascular binding (Vr). Since we correct each ^125I/^14C-IRA delta B/S for vascular space, our y-intercept values likely represent vascular binding. For DA5-CH, there appeared to be rapid, early transport that would indicate a Vr equal to 0. Therefore, using Vr equal to 0, we calculated an estimate of this new Ki and refer to it throughout the manuscript as Model 2.

Consider `CC[C@H](C)[C@H](NC(=O)[C@H](CC(C)C)NC(=O)[C@H](Cc1c[nH]c2ccccc12)NC(=O)[C@H](CCC(N)=O)NC(=O)[C@@H](NC(=O)[C@H](Cc1ccccc1)NC(=O)[C@H](C)NC(=O)[C@H](CCCCNC(=O)COCCOCCNC(=O)COCCOCCNC(=O)CC[C@H](NC(=O)CCCCCCCCCCCCCCCCCCC(=O)O)C(=O)O)NC(=O)[C@H](CCC(N)=O)NC(=O)[C@H](C)NC(=O)[C@@H](NC(=O)[C@H](CCCCN)NC(=O)[C@H](CC(=O)O)NC(=O)[C@H](CC(C)C)NC(=O)C(C)(C)NC(=O)[C@@H](NC(=O)[C@H](CO)NC(=O)[C@H](Cc1ccc(O)cc1)NC(=O)[C@H](CC(=O)O)NC(=O)[C@H](CO)NC(=O)[C@@H](NC(=O)[C@H](Cc1ccccc1)NC(=O)[C@@H](NC(=O)CNC(=O)[C@H](CCC(=O)O)NC(=O)C(C)(C)NC(=O)[C@@H](N)Cc1ccc(O)cc1)[C@@H](C)O)[C@@H](C)O)[C@@H](C)CC)[C@@H](C)CC)C(C)C)C(=O)N[C@@H](C)C(=O)NCC(=O)NCC(=O)N1CCC[C@H]1C(=O)N[C@@H](CO)C(=O)N[C@@H](CO)C(=O)NCC(=O)N[C@@H](C)C(=O)N1CCC[C@H]1C(=O)N1CCC[C@H]1C(=O)N1CCC[C@H]1C(=O)N[C@@H](CO)C(N)=O` [Tirzepatide], for which, in series [1], the “Lipid Solubility Partition Coefficient” value amounted to 0.1318 ± 0.0126 and the “Log Partition Coefficient (Log P)” value is listed as -0.884 ± 0.0405. Further, in series [2], the “Percentage of labeled IRA intact, Whole Brain, 10 min” value is 100.7 ± 0.0% and the “Percentage of labeled IRA intact, Whole Brain, 60 min” value was 99.73 ± 0.6%. Also, the “Brain influx within 1 h of iv injection (detection)” value in series [3] was “did not detect brain influx”.

These data come from PMC11583597, “Brain uptake pharmacokinetics of albiglutide, dulaglutide, tirzepatide, and DA5-CH in the search for new treatments of Alzheimer’s and Parkinson’s diseases” (Tissue Barriers, 2023).
